{"source": "patent US20100093867A1", "about": "“Method Of Treating Genetic Disease Caused By Nonsense Mutation” (priority 2006, published 2010)", "key": {"mdx mouse [1]": {"tested_on": "mdx mouse", "test": "Side effects in mice", "assay_type": "in vivo", "details": "subcutaneous, 4 or 400 mg/kg/day for 14 days", "experimental": "The aforementioned compound 2 was studied for side effects in mice.\nThe compound 2 was injected subcutaneously to an mdx mouse at a dose of 4 or 400 mg/kg/day for 14 days."}, "mdx mouse [2]": {"tested_on": "mdx mouse", "test": "Effect of administration on a muscular dystrophy mouse model", "assay_type": "in vivo", "details": "into the stomach, 4 or 400 mg/kg/day for 7 days", "experimental": "The aforementioned compound 2 was studied for its effect of administration on a muscular dystrophy mouse model. An mdx mouse was used as a muscular dystrophy mouse model. The compound 2 was administered forcibly into the stomach of an mdx mouse at a dose of 4 or 400 mg/kg/day for 7 days, and then biochemical and immuno-histochemical analyses were conducted."}, "[3]": {"tested_on": "mouse models for muscular dystrophy", "details": "Patent document 1; cited from earlier work"}, "[4]": {"tested_on": "patients with Duchenne muscular dystrophy", "details": "Non-patent document 1; cited from earlier work"}, "[5]": {"tested_on": "airway epithelium of patients with cystic fibrosis", "details": "topical administration to airway epithelium, Non-patent document 2; cited from earlier work"}}}
{"compound": "CC(=O)NC(CC(N)=O)C(=O)O", "note": "(stereo not drawn) [compound 2]", "values": [{"measurement": "body weight during the administration period", "setting": "mdx mouse [1]", "value": "no decrease"}, {"measurement": "hearing test that measures auditory brainstem response", "setting": "mdx mouse [1]", "value": "no abnormal values"}, {"measurement": "eighteen serological and biochemical tests", "setting": "mdx mouse [1]; total protein, albumin, AST, ALT, ALP, γ-GTP, creatinine, glucose, lipids, electrolytes, bilirubin etc.", "value": "no abnormal values"}, {"measurement": "results compared to positive control group administered with gentamicin", "setting": "mdx mouse [2]", "value": "favorable results compared to a positive control group administered with gentamicin"}, {"measurement": "serum creatine kinase activity", "setting": "mdx mouse [2]", "value": "reduced"}, {"measurement": "dystrophin in muscles (e.g. hind limb)", "setting": "mdx mouse [2]; immuno-histochemical analysis", "value": "accumulated"}]}
{"compound": "CN(CC(=O)O)NC(=O)C[C@H](N)C[C@@H](O)CN", "note": "[negamycin]", "values": [{"measurement": "dystrophin expression", "setting": "[3]", "value": "restore a dystrophin expression"}]}
{"compound": "gentamicin", "values": [{"measurement": "dystrophin protein", "setting": "[4]", "value": "led to accumulation of dystrophin protein"}, {"measurement": "typical electrophysiological abnormalities", "setting": "[5]", "value": "could correct"}]}
